Data on one compound can be found in patent publication US20070037873A1, “Airway remodeling treatments” (priority 2005, published 2007).

One assay concerns human ASM cells. The assay can be described thus: Fura-2 calcium transients in agonist-stimulated ASM cells. The assay is classed as cell-based. To be noted: ajulemic acid 10 μM or 20 μM for 10 minutes, F340/F380 ratio, p<0.01 versus control. As for the experimental part:
Human airway smooth muscle (ASM) cells were obtained and passaged as described in Example 1. Subconfluent ASM cells in 96-well plates were washed 3 times in a modified Kreb-Ringer-Henseleit solution (KRH) containing 115 mM NaCl, 5 mM KCl, 1 mM KH2PO4, 1 mM MgSO4, 25 mM N-2-hydroxyethylpiperazine-N′-2-ethanesulfonic acid (HEPES), 15 mM glucose and 2 mM CaCl2. Cells were incubated in 1.0 μM fura 2-AM and pluronic F-127 (0.004%) for 60 minutes at room temperature. See, e.g., Wang et al., Am. J. Phys.; 272:C1151-C1159, 1997. After washing 3 times with KRH, cells were covered with 200 μl KRH and placed on the microscope stage. Reagents were added directly to the wells during calcium recordings. Fura 2-AM and F-127 were from Molecular Probes, Inc. (Eugene, Oreg.). Other chemicals were from Sigma (St. Louis, Mo.).
Fluorescence was induced using computer-controlled 337 and 380 nm UV light generated by a nitrogen laser and a nitrogen laser-pumped dye laser, respectively (Laser Science, Franklin, Mass.). See, e.g., Ethier et al., Cell Calcium, 32:31-38 2002. […]
Background from a cell free region of the cover glass was subtracted prior to data acquisition and then an 11×11 pixels area was selected over each cell. […] Fluorescence emissions stimulated by alternating pulses of ˜340 and 380 nm light were recorded and their ratios plotted. […]

The subject of assay [1] is Human airway smooth muscle (ASM) cells. The assay can be described thus: Human ASM cell proliferation (MTT) after TNF-α stimulation. The assay is classed as cell-based. To be noted: ajulemic acid 0-30 μmoles, 60 minutes, then 1 ng/ml TNF-α for 48 hours, FIG. 1. The procedure:
Human airway smooth muscle (ASM) (also known as human bronchial smooth muscle (HBSM)) cells were obtained cryopreserved from Cambrex Bio Science (Walkersville, Md.) at passage 3. See, Ethier and Madison, Cell Calcium, 32:31-38 (2002) and Zhong et al., Am. J Respir Cell Mol. Biol., 30:118-125 (2004). Cultures were characterized as smooth muscle cells by positive immunostaining for smooth muscle actin and negative for Factor VIII. Cells were seeded and grown in smooth muscle basal medium (SMBM, Cambrex Bio Science) supplemented with 5% fetal bovine serum, 5 μg/ml insulin, 0.5 ng/ml epidermal growth factor, 2 ng/ml fibroblast growth factor, gentamicin, and amphotericin. Cells were maintained at 37° C. in a humidified atmosphere (5% CO2), fed every 48 hours, and passaged when confluent. Shortly after passaging, ajulemic acid (synthesized by Organix, Inc., Woburn, Mass.) was added to growth media to a concentration of 0-30 μmoles. Cells were incubated for 60 minutes, and then stimulated with 1 ng/ml TNF-α for 48 hours. After 48 hours, cell proliferation was evaluated using the Cell Proliferation Kit I (MTT) from Roche Diagnostics (Indianapolis, Ind.), which provides a measure of cell number as a function of optical density.

Another assay relates to MMP-1. The assay can be described thus: MMP-1 mRNA Northern blot in stimulated FLS cells. The assay is classed as cell-based, human. To be noted: FLS treated 60 minutes with AjA, then 10 ng/mL TNFα+1 ng/mL GMCSE for 4 hours; FIG. 4. The procedure:
Human fibroblast-like synovial cells (FLS) were obtained from synovial tissue or synovial fluid, and grown to confluence in 6 well tissue culture plates. Cells were treated or not for 60 minutes with AjA, then stimulated with 10 ng/mL TNFα+1 ng/mL GMCSE for 4 hours. MMP-1 mRNA content measured by Northern blot analysis.
Cells were harvested and resuspended in TRIZOL® solution (GIBCO-BRL) to extract total cellular RNA. The RNA was resuspended in diethylpyrocarbonate (DEPC)-treated water. Total RNA (15 μg) was separated by electrophoresis in 1% agarose/17.6% formaldehyde gels. The RNA was transferred overnight from the denaturing gel onto Hybond-N^+ (Amersham Pharmacia Biotech Inc., Piscataway, N.J.) by capillary action using […] buffer ([…]). The RNA was cross-linked to the filter by ultraviolet irradiation for 20 seconds using a UV Crosslinker (Spectronics Corporation, Westbury, N.Y.) and the blots were hybridized with a solution of 5×SSC, 5× Denhardt's solution, 0.5% SDS, and 10 mg/ml sonicated salmon sperm DNA for 5 hours at 65° C., and 10^7 cpm/ml radio-labeled cDNA generated by random priming with ^32P-dCTP ([…], NEN, Boston, Mass.). Probes specific for the MMP-1 gene were heat denatured and added to the prehybridization buffer for hybridization overnight at 65° C. […]

For another assay, the system named is IK-B. The assay can be described thus: Western blot of IK-B phosphorylation in TNF-α stimulated FLS cells. The assay is classed as cell-based, human. To be noted: FIG. 3. The procedure:
FLS cells were collected from human synovial fluid in heparinized syringes, then centrifuged at 1200 rpm (260 g) for 15 minutes. FLS cells are used herein as models of pulmonary fibroblasts and/or myofibroblasts. The resulting cell pellet was resuspended in 7 ml of growth medium (Dulbecco's Minimal Essential Medium with 15% heat-inactivated fetal bovine serum (FBS), 1% nonessential amino acids, 1% penicillin/streptomycin solution) and plated in 25 ml tissue culture flasks. Cultures were incubated at 37° C., under 5% CO2 for 24 to 48 hours after which medium was aspirated and cultures were washed with PBS to remove nonadherent cells. Growth medium was replaced every 3 to 4 days. After 10 to 14 days, adherent cells were harvested by trypsinization, washed, and transferred to 6-well tissue culture plates in fresh growth medium. FLS cells were passaged (split 1:3) at confluence, generally every 10 to 14 days.
FLS cells at passage 2 through 6 were (i) untreated, (ii) treated with 1-30 μM of ajulemic acid in growth media, (iii) treated with 1 ng/ml of TNF-α in growth media, or (iv) treated with a combination of 1-30 μM of ajulemic acid and 1 ng/ml TNF-α for 10 minutes or 45 minutes. Cells were harvested and washed several times with PBS. Whole cell lysates were prepared in hypotonic HEPES buffer (7.45 g KCl/100 ml H2O; 3.80 g EGTA/100 ml H2O;0.87 g PMSF/500 ml H2O; 1.54 g DTT/10 ml H2O). […]

Another assay deals with NF-KB. Put plainly: EMSA of NF-KB binding in nuclear extracts of FLS cells. Format: cell-based, human. To be noted: 10 μM ajulemic acid for 1 hour. The source says:
Human fibroblast-like synovial (FLS) cells were isolated from synovial tissue or synovial fluid of patients with inflammatory arthritis (4 RA, 1 psoriatic arthritis) essentially as described (Stebulis et al., J. Rheumatol. 32:301-06, 2005). Briefly, synovial tissue obtained at the time of joint replacement surgery was minced and plated in tissue culture dishes with growth medium (MEM with 15% FBS, 1% penicillin/streptomycin solution, 1% nonessential amino acids). Synovial fluid was collected in heparinized syringes, then centrifuged at 1200 rpm for 15 min. The cell pellet was resuspended in growth medium, then plated in tissue culture flasks. After 2-4 days, primary cultures were washed with PBS to remove tissue fragments and nonadherent cells. FLS were incubated at 37° C. under 5% CO2 and passaged to 6-well tissue culture plates (split 1:3) when they reached confluence. Passages 2 through 8 were used for experiments.
Experiments were done on FLS rested overnight in low serum medium (MEM/2% FBS). Medium was replaced before beginning the experiments. Cells were treated with 10 μM ajulemic acid for 1 hour then stimulated with 1 ng/ml TNF-α or left unstimulated. Controls were vehicle (0.3% DMSO) treated cells. […] Gels were scanned and analyzed using ADOBE® software for PC.
(In general: In EMSA bound probe runs differently from free probe, usually more slowly.)

For the compound `CCCCCCC(C)(C)c1cc(O)c2c(c1)OC(C)(C)[C@@H]1CC=C(C(=O)O)C[C@@H]21` [ajulemic acid, 1′,1′dimethylheptyl-Δ8-THC-11-oic acid], in the assay with human ASM cells (histamine), the “calcium transients, histamine stimulated” value is “suppressed calcium transients”. Besides, the “calcium transients, thrombin stimulated” value in the assay on human ASM cells (thrombin) is on record as “suppressed calcium transients”. Besides, the “human ASM cell proliferation” value in assay [1] is given as “suppressed human ASM cell proliferation in a dose-dependent manner”. Moreover, the “MMP-1 expression (mRNA, Northern blot)” value in the assay on MMP-1 was “downregulates MMP-1 expression in a dose-dependent manner”. Also, the “expression of the non-phosphorylated form of IK-B” value with IK-B (1-30 μM ajulemic acid with 1 ng/ml TNF-α, after 45 minutes) was “dramatically increased expression of the non-phosphorylated form of IK-B”. Besides, the “phosphorylation of IK-B (phosphor-IK-B)” value in the assay on IK-B (1-30 μM ajulemic acid, 10 minutes after stimulation with 1 ng/ml TNF-α) is on record as “prevented phosphorylation of IK-B”. The “reduction of TNF-α induced NF-KB activation (binding to oligonucleotide corresponding to an NF-KB binding site)” value in the assay on NF-KB (then 1 ng/ml TNF-α, extracts 45 minutes after stimulation, lane 4 vs. lane 3) is “approximately 75%”. For the same compound, the “nuclear binding of NF-KB in resting FLS” value in the assay on NF-KB (unstimulated FLS, EMSA, lane 2 vs. lane 1) is “not altered”.
